Assay results from a compilation of properties of binary mixtures (doi:10.1016/j.molliq.2017.12.015).

Test: xn = mol fraction of the nth substance listed
Details: 100 kPa

CCOCCO + CCCC[n+]1ccn(C)c1.O=S(=O)([N-]S(=O)(=O)C(F)(F)F)C(F)(F)F
speed of sound [m/s]
Details	x2 = 0	x2 = 0.1036	x2 = 0.1905	x2 = 0.2965	x2 = 0.3882	x2 = 0.489	x2 = 0.5889	x2 = 0.7018	x2 = 0.7928	x2 = 0.9071
298.15 K	1302.8	1279.9	–	–	1240.5	1234.5	1231.4	1230.7	–	1228.3
303.15 K	1285.1	1264.6	1246.6	1234.2	–	1223.9	1219.6	1219	1218.4	1217.3
308.15 K	1267.3	1248.9	1232.1	1220.6	1214.5	1210.4	1207.6	1207.2	1206.9	1206.1
313.15 K	–	1230.1	1217.7	–	–	1198	1197.7	1196.5	1196	1195
318.15 K	1232	1217.4	1203.3	–	–	1187.7	1186.9	1185.9	–	1185
323.15 K	1214.3	1201.5	1189	–	1176.2	1175.5	1175	1174.9	1174.3	1174

CCCC[n+]1ccn(C)c1.O=S(=O)([N-]S(=O)(=O)C(F)(F)F)C(F)(F)F + CCOCCO
x1 = 1
Details	speed of sound [m/s]
298.15 K	1227.8
303.15 K	1216.7
308.15 K	1205.8
313.15 K	1194.9
318.15 K	1184.2
323.15 K	1173.6
